# Measurements: ChEMBL document CHEMBL5465560, “Selectivity Literature for EUbOPEN Chemogenomic Library” (2024)
# Tests used:
# [1] = target: G protein-coupled receptor kinase 5 (Homo sapiens, UniProt P34947); experiment: Selectivity interaction (SelectScreen profiling (Invitrogen)) EUB0000607a GRK5; conditions: at 2 µM
# [2] = target: T1, Kinase suppressor of Ras 2 (Homo sapiens) (UniProt Q6VAB6); experiment: Selectivity interaction (ActivX KiNativ screen (kinase selectivity in THP-1 cell lysates)) EUB0000639a KSR2; format: subcellular; conditions: lysate
# T1 sequence (whole entry): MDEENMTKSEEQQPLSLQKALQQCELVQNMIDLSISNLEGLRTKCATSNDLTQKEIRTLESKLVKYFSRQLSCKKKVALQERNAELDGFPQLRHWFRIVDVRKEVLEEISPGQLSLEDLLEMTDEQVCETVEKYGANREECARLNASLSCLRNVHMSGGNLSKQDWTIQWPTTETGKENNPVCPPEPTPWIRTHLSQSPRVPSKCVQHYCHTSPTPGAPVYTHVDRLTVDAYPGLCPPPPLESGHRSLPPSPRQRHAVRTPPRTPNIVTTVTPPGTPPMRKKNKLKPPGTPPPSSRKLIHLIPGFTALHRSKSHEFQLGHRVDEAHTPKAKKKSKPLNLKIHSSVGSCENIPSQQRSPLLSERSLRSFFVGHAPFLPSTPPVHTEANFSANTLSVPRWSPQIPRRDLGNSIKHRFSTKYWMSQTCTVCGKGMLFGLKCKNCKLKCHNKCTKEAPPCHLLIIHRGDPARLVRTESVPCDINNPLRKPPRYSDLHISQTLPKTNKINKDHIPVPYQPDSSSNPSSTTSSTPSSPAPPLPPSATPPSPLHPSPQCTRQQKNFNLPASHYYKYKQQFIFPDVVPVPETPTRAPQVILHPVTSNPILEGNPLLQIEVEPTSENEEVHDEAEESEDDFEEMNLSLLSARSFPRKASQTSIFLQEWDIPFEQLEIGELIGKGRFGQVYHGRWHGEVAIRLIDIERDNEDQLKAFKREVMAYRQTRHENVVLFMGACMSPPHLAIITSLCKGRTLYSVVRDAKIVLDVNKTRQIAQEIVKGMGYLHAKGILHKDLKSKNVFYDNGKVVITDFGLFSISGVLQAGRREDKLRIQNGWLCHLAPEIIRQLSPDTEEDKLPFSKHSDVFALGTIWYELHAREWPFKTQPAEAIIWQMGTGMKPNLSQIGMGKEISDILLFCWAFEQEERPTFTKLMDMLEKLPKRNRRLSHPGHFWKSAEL
# [3] = target: Serine/threonine-protein kinase SIK3 (Homo sapiens) (UniProt Q9Y2K2); experiment: Selectivity interaction (KinomeScan (DiscoverX)) EUB0000655a SIK3; conditions: at 10 µM
# Chain of Serine/threonine-protein kinase SIK3 (Homo sapiens) (Q9Y2K2 whole entry, looked up): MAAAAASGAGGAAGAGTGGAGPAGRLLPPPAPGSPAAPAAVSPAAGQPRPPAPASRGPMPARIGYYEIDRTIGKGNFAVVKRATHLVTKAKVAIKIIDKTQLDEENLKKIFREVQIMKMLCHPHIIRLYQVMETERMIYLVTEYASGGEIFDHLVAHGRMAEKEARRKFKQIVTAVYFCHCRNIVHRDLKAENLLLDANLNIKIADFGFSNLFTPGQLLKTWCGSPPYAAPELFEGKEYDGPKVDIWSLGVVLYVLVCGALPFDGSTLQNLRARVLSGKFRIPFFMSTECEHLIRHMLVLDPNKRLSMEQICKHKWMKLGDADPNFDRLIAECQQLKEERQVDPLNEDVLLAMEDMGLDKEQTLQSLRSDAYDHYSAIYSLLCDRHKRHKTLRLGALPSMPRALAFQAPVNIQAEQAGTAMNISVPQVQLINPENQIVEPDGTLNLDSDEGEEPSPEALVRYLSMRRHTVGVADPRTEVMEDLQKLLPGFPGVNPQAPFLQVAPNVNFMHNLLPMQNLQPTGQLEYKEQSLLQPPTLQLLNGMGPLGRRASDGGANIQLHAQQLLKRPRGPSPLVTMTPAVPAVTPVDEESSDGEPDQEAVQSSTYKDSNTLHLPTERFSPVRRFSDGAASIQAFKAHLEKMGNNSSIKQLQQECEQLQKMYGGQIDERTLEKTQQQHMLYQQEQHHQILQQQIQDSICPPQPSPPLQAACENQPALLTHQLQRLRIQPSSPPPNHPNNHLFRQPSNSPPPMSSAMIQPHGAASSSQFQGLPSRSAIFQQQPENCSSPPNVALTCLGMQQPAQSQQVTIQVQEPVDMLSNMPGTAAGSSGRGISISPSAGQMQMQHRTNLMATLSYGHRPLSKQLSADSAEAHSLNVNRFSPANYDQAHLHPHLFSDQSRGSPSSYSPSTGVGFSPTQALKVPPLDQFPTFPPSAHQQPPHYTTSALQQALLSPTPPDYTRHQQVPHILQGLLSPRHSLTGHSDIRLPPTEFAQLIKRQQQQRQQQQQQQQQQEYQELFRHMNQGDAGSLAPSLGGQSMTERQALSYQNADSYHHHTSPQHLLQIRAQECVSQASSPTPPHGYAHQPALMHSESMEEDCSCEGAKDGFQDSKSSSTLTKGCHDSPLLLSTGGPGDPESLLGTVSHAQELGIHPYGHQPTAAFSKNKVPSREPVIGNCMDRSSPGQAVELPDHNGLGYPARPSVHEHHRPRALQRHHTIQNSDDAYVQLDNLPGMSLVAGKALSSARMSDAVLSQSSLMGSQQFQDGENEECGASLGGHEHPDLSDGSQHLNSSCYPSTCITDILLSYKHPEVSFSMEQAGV
# [4] = target: T2, Serine/threonine-protein kinase Nek9 (Homo sapiens) (UniProt Q8TD19); experiment: Selectivity interaction (KinomeScan (DiscoverX)) EUB0001079a NEK9; conditions: at 1 µM
# T2 sequence (whole entry): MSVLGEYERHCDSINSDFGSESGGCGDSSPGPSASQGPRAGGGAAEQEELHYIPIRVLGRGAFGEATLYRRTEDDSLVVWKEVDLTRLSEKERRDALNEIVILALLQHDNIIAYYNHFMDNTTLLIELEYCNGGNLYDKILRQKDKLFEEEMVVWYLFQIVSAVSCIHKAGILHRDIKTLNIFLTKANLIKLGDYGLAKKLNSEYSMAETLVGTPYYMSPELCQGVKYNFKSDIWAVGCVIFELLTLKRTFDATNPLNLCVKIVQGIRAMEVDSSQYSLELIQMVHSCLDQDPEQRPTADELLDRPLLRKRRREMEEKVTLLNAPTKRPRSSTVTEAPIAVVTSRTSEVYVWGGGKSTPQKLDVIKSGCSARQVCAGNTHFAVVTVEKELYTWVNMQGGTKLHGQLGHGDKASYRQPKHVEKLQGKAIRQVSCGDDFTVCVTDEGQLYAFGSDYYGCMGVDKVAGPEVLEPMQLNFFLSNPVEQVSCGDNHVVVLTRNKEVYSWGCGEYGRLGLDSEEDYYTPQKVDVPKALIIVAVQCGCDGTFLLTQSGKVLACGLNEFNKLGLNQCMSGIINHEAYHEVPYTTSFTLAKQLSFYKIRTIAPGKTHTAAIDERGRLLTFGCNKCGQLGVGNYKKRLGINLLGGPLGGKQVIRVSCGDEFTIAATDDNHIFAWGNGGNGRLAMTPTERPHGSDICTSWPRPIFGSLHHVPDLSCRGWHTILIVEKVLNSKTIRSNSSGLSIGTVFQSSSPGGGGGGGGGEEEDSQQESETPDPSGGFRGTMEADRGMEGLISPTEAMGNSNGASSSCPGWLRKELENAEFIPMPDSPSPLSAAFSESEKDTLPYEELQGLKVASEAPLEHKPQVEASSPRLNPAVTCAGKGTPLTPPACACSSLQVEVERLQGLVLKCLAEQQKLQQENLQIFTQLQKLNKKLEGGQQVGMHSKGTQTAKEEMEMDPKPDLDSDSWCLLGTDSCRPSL
# [5] = target: Ribosomal protein S6 kinase alpha-4 (Homo sapiens) (UniProt O75676); experiment: Selectivity interaction (KinomeScan (DiscoverX)) EUB0001079a RPS6KA4; conditions: at 1 µM
# Chain of Ribosomal protein S6 kinase alpha-4 (Homo sapiens) (O75676 whole entry, looked up): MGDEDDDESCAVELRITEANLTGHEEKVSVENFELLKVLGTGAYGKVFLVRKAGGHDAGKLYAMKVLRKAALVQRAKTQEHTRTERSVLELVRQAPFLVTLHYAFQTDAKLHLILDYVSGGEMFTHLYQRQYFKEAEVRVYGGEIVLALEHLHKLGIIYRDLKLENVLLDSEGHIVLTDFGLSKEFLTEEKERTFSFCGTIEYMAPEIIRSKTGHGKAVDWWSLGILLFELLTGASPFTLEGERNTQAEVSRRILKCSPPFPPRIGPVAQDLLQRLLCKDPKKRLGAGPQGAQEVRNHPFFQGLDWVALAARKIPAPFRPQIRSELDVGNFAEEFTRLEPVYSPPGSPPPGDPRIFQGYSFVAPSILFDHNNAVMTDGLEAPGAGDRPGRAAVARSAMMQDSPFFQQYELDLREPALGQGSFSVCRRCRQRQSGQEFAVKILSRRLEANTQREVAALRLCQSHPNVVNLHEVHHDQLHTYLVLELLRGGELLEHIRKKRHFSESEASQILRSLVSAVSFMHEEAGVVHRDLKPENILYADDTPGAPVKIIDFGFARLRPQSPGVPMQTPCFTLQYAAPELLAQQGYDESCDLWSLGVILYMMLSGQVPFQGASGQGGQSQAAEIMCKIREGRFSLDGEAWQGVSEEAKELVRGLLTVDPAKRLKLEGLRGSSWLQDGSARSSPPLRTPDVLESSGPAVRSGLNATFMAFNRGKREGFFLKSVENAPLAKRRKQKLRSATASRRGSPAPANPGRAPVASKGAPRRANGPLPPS
# [6] = target: RAC-gamma serine/threonine-protein kinase (Homo sapiens, UniProt Q9Y243); experiment: Selectivity interaction (KinomeScan (DiscoverX)) EUB0001619a AKT3; conditions: at 1 µM
# Chain of RAC-gamma serine/threonine-protein kinase (Q9Y243 whole entry): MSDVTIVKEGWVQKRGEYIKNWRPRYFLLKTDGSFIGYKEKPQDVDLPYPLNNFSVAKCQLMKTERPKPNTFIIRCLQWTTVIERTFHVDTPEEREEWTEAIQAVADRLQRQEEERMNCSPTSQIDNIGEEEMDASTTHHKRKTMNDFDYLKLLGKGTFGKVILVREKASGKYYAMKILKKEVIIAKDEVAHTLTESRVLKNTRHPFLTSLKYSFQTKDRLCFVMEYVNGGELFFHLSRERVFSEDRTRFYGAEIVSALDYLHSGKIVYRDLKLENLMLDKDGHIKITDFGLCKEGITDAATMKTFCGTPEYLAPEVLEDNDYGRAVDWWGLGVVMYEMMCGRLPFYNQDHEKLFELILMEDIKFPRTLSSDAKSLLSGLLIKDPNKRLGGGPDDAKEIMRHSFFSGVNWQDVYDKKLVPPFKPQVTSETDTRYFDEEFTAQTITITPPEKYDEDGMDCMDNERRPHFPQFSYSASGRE
# [7] = target: T3, Mitogen-activated protein kinase 15 (Homo sapiens) (UniProt Q8TD08); experiment: Selectivity interaction (KinomeScan (DiscoverX)) EUB0001619a MAPK15; conditions: at 1 µM
# T3 sequence (whole entry): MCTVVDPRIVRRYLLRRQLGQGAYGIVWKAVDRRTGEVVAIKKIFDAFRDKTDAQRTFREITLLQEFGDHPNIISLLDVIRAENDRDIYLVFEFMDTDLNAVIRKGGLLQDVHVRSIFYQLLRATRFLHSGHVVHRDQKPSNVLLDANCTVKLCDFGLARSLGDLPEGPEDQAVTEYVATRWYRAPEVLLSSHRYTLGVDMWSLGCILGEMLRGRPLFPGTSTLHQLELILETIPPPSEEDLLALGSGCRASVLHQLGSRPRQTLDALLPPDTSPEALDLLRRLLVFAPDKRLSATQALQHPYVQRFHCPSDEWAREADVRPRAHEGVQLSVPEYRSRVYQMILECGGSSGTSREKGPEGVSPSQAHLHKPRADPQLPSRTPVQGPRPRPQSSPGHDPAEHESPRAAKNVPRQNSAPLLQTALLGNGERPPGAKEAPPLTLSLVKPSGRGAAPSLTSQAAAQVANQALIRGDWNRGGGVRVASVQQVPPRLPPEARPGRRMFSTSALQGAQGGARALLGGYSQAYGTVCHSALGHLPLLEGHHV
# Chain of G protein-coupled receptor kinase 5 (P34947 whole entry, looked up): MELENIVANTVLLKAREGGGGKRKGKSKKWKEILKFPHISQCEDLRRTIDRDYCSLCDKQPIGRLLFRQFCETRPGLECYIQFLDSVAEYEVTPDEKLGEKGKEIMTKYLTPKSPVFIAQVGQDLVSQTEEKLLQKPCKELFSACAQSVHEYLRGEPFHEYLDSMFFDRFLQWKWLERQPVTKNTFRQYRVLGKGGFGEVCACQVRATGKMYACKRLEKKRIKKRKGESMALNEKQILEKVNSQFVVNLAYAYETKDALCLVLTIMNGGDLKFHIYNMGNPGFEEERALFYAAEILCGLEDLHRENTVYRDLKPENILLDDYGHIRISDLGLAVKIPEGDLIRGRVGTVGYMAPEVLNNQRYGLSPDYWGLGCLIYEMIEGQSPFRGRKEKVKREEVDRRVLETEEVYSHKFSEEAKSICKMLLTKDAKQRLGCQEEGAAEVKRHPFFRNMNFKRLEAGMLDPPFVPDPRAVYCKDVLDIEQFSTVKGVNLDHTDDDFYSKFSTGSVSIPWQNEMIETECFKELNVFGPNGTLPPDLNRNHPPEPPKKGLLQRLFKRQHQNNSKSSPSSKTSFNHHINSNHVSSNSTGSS
structure (smiles),measurement,setting,value
CNC(=O)Nc1ccc(-c2nc(N3CC4CCC(C3)O4)c3cnn(C4CCC5(CC4)OCCO5)c3n2)cc1,% of inhibition,[1],-4%
CC[C@@H]1[C@H](F)C(=O)N[C@@H]1COc1nccc2cc(C(N)=O)c(OC)cc12 [ZIMLOVISERTIB],% of inhibition,[2]; at 0.01 µM,2.4%
same,% of inhibition,[2]; at 0.2 µM,-8.6%
same,% of inhibition,[2]; at 1 µM,-32.8%
same,% of inhibition,[2]; at 5 µM,-57.9%
CN(C)CCOc1ccc(-c2nc(-c3ccncc3)c(-c3ccc4c(c3)CC/C4=N\O)[nH]2)cc1,% of control,[3],100%
Nc1cnc(N2CCc3cc(S(=O)(=O)Nc4c(F)cc(Cl)cc4F)cc(N4CCCC4=O)c32)nc1 [TP-020n],% of control,[4],98%
same,% of control,[5],96%
N#Cc1cccc(-c2c[nH]c3ncnc(N4CCOCC4)c23)c1,% of control,[6],100%
same,% of control,[7],56%
